Test results taken from patent publication US11279733B2, “Peptide antibiotics” (priority 2017, dated 2022).
Blank lines part the entries; values can stand above or below the compound they belong to.

Tested on: bacterial strains
Assay: Potentiation/synergy antimicrobial assay (checkerboard, FICI) with antibiotics
Assay type: cell-based
Details: for MIC of antibiotic with 6442 at concn 0: 6442 0 μg/mL; for MIC of antibiotic with 6442 at concn 0.03: 6442 0.03 μg/mL; for MIC of antibiotic with 6442 at concn 0.0625: 6442 0.0625 μg/mL; for MIC of antibiotic with 8980 at conc 0: 8980 0 μg/mL; for MIC of antibiotic with 8980 at conc 1: 8980 1 μg/mL; for MIC of antibiotic with 8980 at conc 2: 8980 2 μg/mL; for MIC of antibiotic with 8980 at conc 4: 8980 4 μg/mL; for MIC of antibiotic with 8980 at conc 8: 8980 8 μg/mL; for MIC of antibiotic with 8981 at conc 0: 8981 0 μg/mL; for MIC of antibiotic with 8981 at conc 1: 8981 1 μg/mL; for MIC of antibiotic with 8981 at conc 2: 8981 2 μg/mL; for MIC of antibiotic with 8981 at conc 4: 8981 4 μg/mL; for MIC of antibiotic with 8981 at conc 8: 8981 8 μg/mL; for MIC of antibiotic with OctC4 at concn 0: OctC4 0 μg/mL; for MIC of antibiotic with OctC4 at concn 0.03: OctC4 0.03 μg/mL; for MIC of antibiotic with OctC4 at concn 0.0625: OctC4 0.0625 μg/mL; for MIC of antibiotic with OctC4 at concn 0.125: OctC4 0.125 μg/mL; for MIC of antibiotic with 6442 at concn 0.25: 6442 0.25 μg/mL; for MIC of antibiotic with OctC4 at concn 0.25: OctC4 0.25 μg/mL
Description: Potentiation/synergy antimicrobial assays were conducted in the same manner as the standard MICs described above, with the following modifications. Assays were performed in 384-well non-binding surface plates (NBS; Corning 3460) and in Cation-adjusted Mueller Hinton Broth (CA-MHB; BD, Cat. No. 212322) with a final assay volume of 50 μL once bacteria was added at 5×10^5 CFU/mL. Antibiotics and octapeptin compounds were plated in duplicate as a 2-fold concentration series, in a matrix checkerboard format. The bacterial cell density of the resultant assay plates after 18-20 h incubation at 37° C. was read by optical density 600 nm (OD600) using a Tecan M1000 Pro Spectrophotometer, and analysed for ≥90% growth inhibition compared to the growth control to determine active concentrations. Synergistic effect was calculated based on the fractional inhibitory concentration index (FICI) by the following equation, where synergy is deemed FICI 0.5: […]

- MIC of antibiotic with 6442 at concn 0 (GN_007 E. coli ESBL): 0.25 µg/mL
- MIC of antibiotic with 6442 at concn 0.03 (GN_007 E. coli ESBL): 0.25 µg/mL
- MIC of antibiotic with 6442 at concn 0.0625 (GN_007 E. coli ESBL): 0.125 µg/mL
- MIC of antibiotic with 8980 at conc 0 (GN_007 E. coli ESBL): 0.25 µg/mL
- MIC of antibiotic with 8980 at conc 1 (GN_007 E. coli ESBL): 0.125 to 0.25 µg/mL
- MIC of antibiotic with 8980 at conc 2 (GN_007 E. coli ESBL): 0.125 µg/mL
- MIC of antibiotic with 8980 at conc 4 (GN_007 E. coli ESBL): 0.06 to 0.125 µg/mL
- MIC of antibiotic with 8980 at conc 8 (GN_007 E. coli ESBL): 0.06 to 0.125 µg/mL
- MIC of antibiotic with 8981 at conc 0 (GN_007 E. coli ESBL): 0.25 µg/mL
- MIC of antibiotic with 8981 at conc 1 (GN_007 E. coli ESBL): 0.25 µg/mL
- MIC of antibiotic with 8981 at conc 2 (GN_007 E. coli ESBL): 0.125 to 0.25 µg/mL
- MIC of antibiotic with 8981 at conc 4 (GN_007 E. coli ESBL): 0.03 to 0.125 µg/mL
- MIC of antibiotic with 8981 at conc 8 (GN_007 E. coli ESBL): 0.03 to 0.125 µg/mL
- MIC of antibiotic with OctC4 at concn 0 (GN_007 E. coli ESBL): 0.25 µg/mL
- MIC of antibiotic with OctC4 at concn 0.03 (GN_007 E. coli ESBL): 0.25 µg/mL
- MIC of antibiotic with OctC4 at concn 0.0625 (GN_007 E. coli ESBL): 0.125 to 0.25 µg/mL
- MIC of antibiotic with OctC4 at concn 0.125 (GN_007 E. coli ESBL): 0.125 µg/mL
- MIC of antibiotic with 8980 at conc 0 (GN_019 A. baumannii CARB): 4 µg/mL
- MIC of antibiotic with 8981 at conc 0 (GN_019 A. baumannii CARB): 4 µg/mL
- MIC of antibiotic with 8981 at conc 1 (GN_019 A. baumannii CARB): 2 to 16 µg/mL
- MIC of antibiotic with 8981 at conc 2 (GN_019 A. baumannii CARB): 2 to 16 µg/mL
- MIC of antibiotic with 6442 at concn 0 (GN_045 K. pneumoniae NDM-1): 32 µg/mL
- MIC of antibiotic with 6442 at concn 0.03 (GN_045 K. pneumoniae NDM-1): 32 µg/mL
- MIC of antibiotic with 6442 at concn 0.0625 (GN_045 K. pneumoniae NDM-1): 32 µg/mL
- MIC of antibiotic with 8980 at conc 0 (GN_045 K. pneumoniae NDM-1): 32 µg/mL
- MIC of antibiotic with 8981 at conc 0 (GN_045 K. pneumoniae NDM-1): 32 µg/mL
- MIC of antibiotic with OctC4 at concn 0 (GN_045 K. pneumoniae NDM-1): 32 µg/mL
- MIC of antibiotic with OctC4 at concn 0.03 (GN_045 K. pneumoniae NDM-1): 32 µg/mL
- MIC of antibiotic with OctC4 at concn 0.0625 (GN_045 K. pneumoniae NDM-1): 32 µg/mL
- MIC of antibiotic with OctC4 at concn 0.125 (GN_045 K. pneumoniae NDM-1): 32 µg/mL
- MIC of antibiotic with 8980 at conc 0 (GN_093 A. baumannii XDR/PmxR): 8 µg/mL
- MIC of antibiotic with 8981 at conc 0 (GN_093 A. baumannii XDR/PmxR): 8 µg/mL
- MIC of antibiotic with 8981 at conc 1 (GN_093 A. baumannii XDR/PmxR): 4 to 32 µg/mL
- MIC of antibiotic with 8981 at conc 2 (GN_093 A. baumannii XDR/PmxR): 2 to 32 µg/mL
- MIC of antibiotic with 6442 at concn 0 (GN_102 K. pneumoniae XDR/PmxR): 32 µg/mL
- MIC of antibiotic with 6442 at concn 0.03 (GN_102 K. pneumoniae XDR/PmxR): 16 µg/mL
- MIC of antibiotic with 6442 at concn 0.0625 (GN_102 K. pneumoniae XDR/PmxR): 16 µg/mL
- MIC of antibiotic with 8980 at conc 0 (GN_102 K. pneumoniae XDR/PmxR): 32 µg/mL
- MIC of antibiotic with 8981 at conc 0 (GN_102 K. pneumoniae XDR/PmxR): 32 µg/mL
- MIC of antibiotic with OctC4 at concn 0 (GN_102 K. pneumoniae XDR/PmxR): 32 µg/mL
- MIC of antibiotic with OctC4 at concn 0.03 (GN_102 K. pneumoniae XDR/PmxR): 32 µg/mL
- MIC of antibiotic with OctC4 at concn 0.0625 (GN_102 K. pneumoniae XDR/PmxR): 16 µg/mL
- MIC of antibiotic with OctC4 at concn 0.125 (GN_102 K. pneumoniae XDR/PmxR): 16 µg/mL
- MIC of antibiotic with 6442 at concn 0 (GN_105 P. aeruginosa PmxR): 8 µg/mL
- MIC of antibiotic with 6442 at concn 0.03 (GN_105 P. aeruginosa PmxR): 4 µg/mL
- MIC of antibiotic with 6442 at concn 0.0625 (GN_105 P. aeruginosa PmxR): 2 to 4 µg/mL
- MIC of antibiotic with 6442 at concn 0.25 (GN_105 P. aeruginosa PmxR): 0.06 µg/mL
- MIC of antibiotic with 8980 at conc 0 (GN_105 P. aeruginosa PmxR): 8 µg/mL
- MIC of antibiotic with 8980 at conc 2 (GN_105 P. aeruginosa PmxR): 1 µg/mL
- MIC of antibiotic with 8980 at conc 4 (GN_105 P. aeruginosa PmxR): 1 µg/mL
- MIC of antibiotic with 8981 at conc 0 (GN_105 P. aeruginosa PmxR): 8 µg/mL
- MIC of antibiotic with OctC4 at concn 0 (GN_105 P. aeruginosa PmxR): 8 µg/mL
- MIC of antibiotic with OctC4 at concn 0.03 (GN_105 P. aeruginosa PmxR): 8 µg/mL
- MIC of antibiotic with OctC4 at concn 0.0625 (GN_105 P. aeruginosa PmxR): 4 µg/mL
- MIC of antibiotic with OctC4 at concn 0.125 (GN_105 P. aeruginosa PmxR): 4 µg/mL
- MIC of antibiotic with 6442 at concn 0 (GN_181 E. coli mcr-1): 4 µg/mL
- MIC of antibiotic with 6442 at concn 0.03 (GN_181 E. coli mcr-1): 4 µg/mL
- MIC of antibiotic with 6442 at concn 0.125 (GN_181 E. coli mcr-1, 6442 0.125 μg/mL): 1 µg/mL
- MIC of antibiotic with 6442 at concn 0.25 (GN_181 E. coli mcr-1): 0.06 µg/mL
- MIC of antibiotic with 8980 at conc 0 (GN_181 E. coli mcr-1): 4 µg/mL
- MIC of antibiotic with 8980 at conc 1 (GN_181 E. coli mcr-1): 1 to 2 µg/mL
- MIC of antibiotic with 8980 at conc 2 (GN_181 E. coli mcr-1): 0.5 to 2 µg/mL
- MIC of antibiotic with 8980 at conc 4 (GN_181 E. coli mcr-1): 0.5 to 2 µg/mL
- MIC of antibiotic with 8980 at conc 8 (GN_181 E. coli mcr-1): 0.5 to 2 µg/mL
- MIC of antibiotic with 8981 at conc 0 (GN_181 E. coli mcr-1): 4 µg/mL
- MIC of antibiotic with 8981 at conc 1 (GN_181 E. coli mcr-1): 1 to 2 µg/mL
- MIC of antibiotic with 8981 at conc 2 (GN_181 E. coli mcr-1): 1 to 2 µg/mL
- MIC of antibiotic with 8981 at conc 4 (GN_181 E. coli mcr-1): 0.5 to 2 µg/mL
- MIC of antibiotic with 8981 at conc 8 (GN_181 E. coli mcr-1): 0.5 to 2 µg/mL
- MIC of antibiotic with OctC4 at concn 0 (GN_181 E. coli mcr-1): 4 µg/mL
- MIC of antibiotic with OctC4 at concn 0.03 (GN_181 E. coli mcr-1): 4 µg/mL
- MIC of antibiotic with OctC4 at concn 0.0625 (GN_181 E. coli mcr-1): 2 to 4 µg/mL
- MIC of antibiotic with OctC4 at concn 0.25 (GN_181 E. coli mcr-1): 0.06 to 0.25 µg/mL
SMILES: CN(C)c1ccc(O)c2c1C[C@H]1C[C@H]3[C@H](N(C)C)C(O)=C(C(N)=O)C(=O)[C@@]3(O)C(O)=C1C2=O [Minocycline, minocycline]

- MIC of antibiotic with OctC4 at concn 0 (GN_181 E. coli mcr-1): >32 µg/mL
- MIC of antibiotic with OctC4 at concn 0.03 (GN_181 E. coli mcr-1): 8 µg/mL
- MIC of antibiotic with OctC4 at concn 0.0625 (GN_181 E. coli mcr-1): 4 µg/mL
- MIC of antibiotic with OctC4 at concn 0.125 (GN_181 E. coli mcr-1): 4 µg/mL
- MIC of antibiotic with OctC4 at concn 0.25 (GN_181 E. coli mcr-1): 0.25 µg/mL
SMILES: CC(=O)NC[C@H]1CN(c2ccc(N3CCOCC3)c(F)c2)C(=O)O1 [Linezolid, linezolid]
